These results are taken from patent US20240100120A1 (priority 2019, published 2024).

The test system of one experiment is hypopnea and apnea. As to conditions: human sleep apnea patients; cited from earlier work.
The test system of experiment [1] is side effects (e.g., respiratory depression) of opioid receptor agonists. As to conditions: oxytocin 0.32 mg/kg subcutaneously; heroin 0.1-1.0 mg/kg; rhesus monkeys.
Experiment [2] relates to opioid self-administration. As to conditions: Kovacs G L, et al. Life Sci. 1985; cited from earlier work.
Experiment [3] has as its system integrated phrenic nerve activity (iPNA); opioid OIRD. The settings on record: rat, in vivo.
Experiment [4] concerns fentanyl OIRD (integrated phrenic nerve activity, iPNA). The settings on record: rat, in vivo, iv.

Where a SMILES comes first, the peptide text is derived from it. Bridges are numbered along the chain shown (N, C = ends). [ ]: non-standard residue; d: D form. Orn = NCCC[C@H](N)C(=O)O; Mpa = O=C(O)CCS

Consider `CC[C@H](C)[C@@H]1NC(=O)[C@H](Cc2ccc(O)cc2)NC(=O)[C@@H](N)CSSC[C@@H](C(=O)N2CCC[C@H]2C(=O)N[C@@H](CC(C)C)C(=O)NCC(N)=O)NC(=O)[C@H](CC(N)=O)NC(=O)[C@H](CCC(N)=O)NC1=O` [oxytocin], for which the “frequency of hypopnea, apnea and hypopnea duration and related arousal” value with hypopnea and apnea was “improved”. Besides, the “reversal of side effects (e.g., respiratory depression) of opioid receptor agonists” value in experiment [1] was “reversed”. Also, the opioid self-administration entry in experiment [2] is “reduces opioid self-administration”. Further, the “reduction of OIRD by OXT delivered into the PVN” value in experiment [3] is “does not reduce OIRD”.
For “(Phenylacl-D-Tyr(Et)2,Lys6,Arg8,des-Gly9)-vasopressin trifluoroacetate [V1aRX]”, in experiment [4], the “effect of V1aR antagonism on OXTN reversal of OIRD” value was “significantly enhances reversal” and the “effect of V1aR antagonism on high dose OXTN reversal of OIRD” value was “efficacy is restored”.
Take `CCOc1ccc(C[C@H]2NC(=O)CCSSC[C@@H](C(=O)N3CCC[C@H]3C(=O)N[C@@H](CCCN)C(=O)NCC(N)=O)NC(=O)[C@H](CC(N)=O)NC(=O)[C@H]([C@@H](C)O)NC(=O)[C@H]([C@@H](C)CC)NC2=O)cc1` [atosiban] ([Mpa][dY](Et)ITNCP[Orn]G-NH2; disulfide 1-6): in experiment [4], the “effect of OXTN receptor antagonism on OXTN reversal of FENT OIRD” value is reported as “prevents OXTN (5 μg/kg) reversal of FENT OIRD”.
